Where a SMILES comes first, the peptide text is derived from it. [ ]: non-standard residue; d: D form. The star is where a group is joined. Dolaproine = CO[C@@H]([C@@H]1CCCN1)[C@@H](C)C(=O)O; Dil = CC[C@H](C)[C@H](NC)[C@@H](CC(=O)O)OC; X1 = C[C@@H](N*)[C@@H](O)c1ccccc1; NMeV = CN[C@H](C(=O)O)C(C)C
Tested on: HEK‐293 cells (VEGFR2−, αvβ3−)
Assay: AlamarBlue cell viability, HEK-293
Format: cell-based
Details: 200 nM MMAE in free form, 10 min in PBS, 37 °C, 10% Alamar blue 6 h; HUVEC, HEK-293, HCT-116, A498 compared (Figure S44)
Source text: Figure 6 Cytotoxicity of cathepsin B‐cleavable vcMMAE‐DNA‐peptide complexes LC40 and components. a) Viability of HUVECs after treatment with unlabeled DNA complex 2), vcMMAE‐template DNA 3), single‐stranded monovalent DNA‐peptide conjugates 4 and 5), heterobivalent LC40 lacking cytotoxic payload 6), both i) single‐stranded monovalent DNA‐peptide conjugates followed by ii) addition of vcMMAE‐template 7), with i) unlabeled DNA complex followed by addition of ii) both single‐stranded monovalent DNA‐peptide conjugates and subsequently iii) vcMMAE‐template 8 and 9), vcMMAE‐LC40 at varied concentrations 10–15) or with unlabeled DNA complex prior to addition of vcMMAE‐LC40 16 and 17). […] Flow cytometric analysis of HUVECs mixed with e) eGFP‐expressing HEK‐293 cells or f) anti‐EpCAM antibody‐stained HCT‐116 cells assessed by dead cell staining. […]
The collected HUVEC cells were washed twice with OptiMEM and added to 2.4 mL OptiMEM in T25 flasks.The siRNA-lipofectamine complex (600 µL) was added to 2.4 mL HUVEC cells, and the mixture was incubated at 37°C, 5% CO 2 for 4 h. […] The transfection efficiency was calculated by flow cytometry and comparing the signal of anti-integrin antibody (A488) from HUVEC cells transfected with siRNA + lipofectamine with that from the cells with mock transfection (Fig. S39). […]

For `CC[C@H](C)[C@@H]([C@@H](CC(=O)N1CCC[C@H]1[C@H](OC)[C@@H](C)C(=O)N[C@H](C)[C@@H](O)c1ccccc1)OC)N(C)C(=O)[C@@H](NC(=O)[C@@H](NC)C(C)C)C(C)C` [MMAE, monomethyl auristatin E] (H-[NMeV]V[Dil][Dolaproine]-X1), the “cytotoxic effect of MMAE in free form, comparison of cell lines” value was “most vulnerable”.

Reference: PMC12455437, “Bispecific DNA‐Peptide Probes for Targeting Receptor Pairs on Live Cells” (Angewandte Chemie (International Ed. in English), 2025)
